Experimental data taken from PubChem BioAssay AID266 (DTP/NCI, 2004).
Values joined by “and” are separate entries in the source; they are usually repeats but may differ in a detail not shown here. Equal entries are not always repeated. Inconclusive results are not listed.

Test system: Nude mice, LX-1 lung xenograft intrarenal, tumor weight T/C
Experiment: NCI In Vivo Anticancer Drug Screen. Data for tumor model Human Lung LX-1 Xenograft (intrarenal inoculation) in NU/NU BALB/C (nude) mice
Settings: endpoint: mean tumor weight change, higher = larger tumour
Procedure: The antitumor activity of compounds was measured in mice bearing transplantable tumors. Survival or tumor size were measured and the results are expressed as the measurement made in the treated group (T) divided by the measurement made in the vehicle treated control group (C). The tumor model used in this assay is Human Lung LX-1 Xenograft (intrarenal inoculation) in NU/NU BALB/C (nude) mice

[1] = dose: 150.0 mg/kg/injection, schedule: Q04DX003 (sc), vehicle: saline
[2] = dose: 300.0 mg/kg/injection, schedule: Q04DX003 (sc), vehicle: saline with Tween-80
[3] = dose: 600.0 mg/kg/injection, schedule: Q04DX003 (sc), vehicle: saline with Tween-80
[4] = dose: 1200.0 mg/kg/injection, schedule: Q04DX003 (sc), vehicle: saline with Tween-80
[5] = dose: 25.0 mg/kg/injection, schedule: Q04DX003 (sc), vehicle: saline
[6] = dose: 50.0 mg/kg/injection, schedule: Q04DX003 (sc), vehicle: saline
[7] = dose: 100.0 mg/kg/injection, schedule: Q04DX003 (sc), vehicle: saline
[8] = dose: 200.0 mg/kg/injection, schedule: Q04DX003 (sc), vehicle: saline
[9] = dose: 150.0 mg/kg/injection, schedule: Q04DX003 (sc), vehicle: saline with Tween-80

In the case of `CC(C)CCCCCCCCCCCCC(=O)NCC(=O)NC1C(O)C(O)C(Nc2ncnc3nc[nH]c23)OC1C(O)CO` (stereo unspecified), the T/C (dose: 0.4 mg/kg/injection, schedule: Q01DX010 (sc), vehicle: saline) is reported as 98 % of control and the T/C (dose: 0.8 mg/kg/injection, schedule: Q01DX010 (sc), vehicle: saline) is reported as 24 % of control.
`C[C@@]1(CO)[C@H](O)CC[C@@]2(C)[C@H]1CC[C@H]1C[C@@H]3C[C@@]12CC[C@@]3(O)COC(=O)CN` was tested, and the T/C (dose: 100.0 mg/kg/injection, schedule: Q01DX010 (sc), vehicle: saline + alcohol) was 109 % of control and the T/C (dose: 200.0 mg/kg/injection, schedule: Q01DX010 (sc), vehicle: saline + alcohol) was 54 % of control.
With `C[C@@H]1C[C@@H]([C@H](O)CC2CC(=O)NC(=O)C2)C(=O)[C@@H](C)C1` the T/C (dose: 18.75 mg/kg/injection, schedule: Q04DX003 (sc), vehicle: saline) was 94 % of control, the T/C (dose: 37.5 mg/kg/injection, schedule: Q04DX003 (sc), vehicle: saline) was 114 % of control and the T/C (dose: 75.0 mg/kg/injection, schedule: Q04DX003 (sc), vehicle: saline) was 118 % of control. For the same compound, the T/C [1] was 110 % of control.
With `CNNCc1ccc(C(=O)NC(C)C)cc1` the T/C (dose: 50.0 mg/kg/injection, schedule: Q01DX010 (ip), vehicle: saline) was -66 % of control, the T/C (dose: 50.0 mg/kg/injection, schedule: Q01DX010 (sc), vehicle: saline) was 2 % of control and 11 % of control and the T/C (dose: 100.0 mg/kg/injection, schedule: Q01DX010 (ip), vehicle: saline) was -100 % of control. The T/C (dose: 100.0 mg/kg/injection, schedule: Q01DX010 (sc), vehicle: saline) was 8 % of control, the T/C (dose: 166.66 mg/kg/injection, schedule: Q04DX003 (sc), vehicle: saline) was 5 % of control and the T/C (dose: 200.0 mg/kg/injection, schedule: Q01DX010 (sc), vehicle: saline) was -71 % of control. The T/C (dose: 333.33 mg/kg/injection, schedule: Q04DX003 (sc), vehicle: saline) was -38 % of control, the T/C (dose: 400.0 mg/kg/injection, schedule: Q01DX010 (sc), vehicle: saline) was -65 % of control and the T/C (dose: 666.65 mg/kg/injection, schedule: Q04DX003 (sc), vehicle: saline) was -14 % of control.
`CCOC(=O)c1cn(C)c2c1C(O)=C(C(=O)OC)CC(=O)N2` was tested, and the T/C [2] was 99 % of control, the T/C [3] was 55 % of control and the T/C [4] was 111 % of control. For the same compound, the T/C (dose: 2400.0 mg/kg/injection, schedule: Q04DX003 (sc), vehicle: saline with Tween-80) was 154 % of control.
With `O=S(CCCl)CCCl` the T/C (dose: 25.0 mg/kg/injection, schedule: Q04DX003 (sc), vehicle: Klucel (hydroxypropylcellulose) (HPC)) was 81 % of control and the T/C (dose: 50.0 mg/kg/injection, schedule: Q04DX003 (sc), vehicle: Klucel (hydroxypropylcellulose) (HPC)) was 76 % of control.
With `CC[As](=O)(O)CC` the T/C [5] was 77 % of control, the T/C [6] was 82 % of control and the T/C [7] was 51 % of control. For the same compound, the T/C [8] was 70 % of control.
In the case of `COc1cccc2c1C(=O)c1c(O)c3c(c(O)c1C2=O)C[C@@](O)(C(C)=O)C[C@@H]3OC1CC(N)C(O)C(C)O1` (stereo partly specified), the T/C (dose: 2.0 mg/kg/injection, schedule: Q01DX010 (sc), vehicle: saline) is reported as 109 % of control, the T/C (dose: 4.0 mg/kg/injection, schedule: Q01DX010 (sc), vehicle: saline) is reported as 153 % of control and the T/C (dose: 8.0 mg/kg/injection, schedule: Q01DX010 (sc), vehicle: saline) is reported as 31 % of control.
With `CC(C)C(N)C(=O)Nc1nncs1` (stereo unspecified) the T/C [1] was 102 % of control, the T/C (dose: 300.0 mg/kg/injection, schedule: Q04DX003 (sc), vehicle: saline) was 74 % of control and the T/C (dose: 600.0 mg/kg/injection, schedule: Q04DX003 (sc), vehicle: saline) was 78 % of control.
In the case of `CC[C@](C)(O)C(=O)O[C@H]1C(=O)O[C@@H]2C[C@H]3C(C)=CC(=O)[C@@H](O)[C@]3(C)[C@H]3[C@@]4(O)OC[C@]32[C@@H]1[C@@H](C)[C@H]4O`, the T/C (dose: 0.5 mg/kg/injection, schedule: Q01DX010 (sc), vehicle: Klucel (hydroxypropylcellulose) (HPC)) is reported as 38 % of control and the T/C (dose: 1.0 mg/kg/injection, schedule: Q01DX010 (sc), vehicle: Klucel (hydroxypropylcellulose) (HPC)) is reported as 17 % of control.
With `O=NN(CCCl)C(=O)NC1OC(CO)C(O)C(O)C1O` (stereo unspecified) the T/C (dose: 5.0 mg/kg/injection, schedule: Q04DX003 (sc), vehicle: saline) was 86 % of control, the T/C (dose: 10.0 mg/kg/injection, schedule: Q04DX003 (sc), vehicle: saline) was 55 % of control and the T/C (dose: 20.0 mg/kg/injection, schedule: Q04DX003 (sc), vehicle: saline) was 66 % of control.
In the case of `CCN(CC)Cc1cc2[nH]c3c4ccc(Cl)cc4ncc3c2cc1OC`, the T/C (dose: 75.0 mg/kg/injection, schedule: Q04DX003 (sc), vehicle: saline with Tween-80) is reported as 73 % of control, the T/C [9] is reported as 71 % of control and the T/C [2] is reported as 86 % of control.
`NCCCNCCSP(=O)(O)O` was tested, and the T/C [8] was 99 % of control, the T/C (dose: 400.0 mg/kg/injection, schedule: Q04DX003 (sc), vehicle: saline) was 78 % of control and the T/C (dose: 800.0 mg/kg/injection, schedule: Q04DX003 (sc), vehicle: saline) was 80 % of control.
`CC(=O)NC(CCc1ccc(Cl)c(Cl)c1)c1cccc(O)c(=O)c1` (stereo unspecified) was tested, and the T/C (dose: 50.0 mg/kg/injection, schedule: Q04DX003 (ip), vehicle: Klucel (hydroxypropylcellulose) (HPC)) was 52 % of control, the T/C (dose: 100.0 mg/kg/injection, schedule: Q04DX003 (ip), vehicle: Klucel (hydroxypropylcellulose) (HPC)) was 62 % of control and the T/C (dose: 200.0 mg/kg/injection, schedule: Q04DX003 (ip), vehicle: Klucel (hydroxypropylcellulose) (HPC)) was 57 % of control.
In the case of `CN(C)P(=O)(Oc1ccccc1)N(C)C`, the T/C [9] is reported as 99 % of control, the T/C [2] is reported as 111 % of control and the T/C [3] is reported as 72 % of control. The T/C [4] was 83 % of control.
For `COc1ccc(OC)c(/C=C/c2ccnc3ccccc23)c1`, the T/C (dose: 50.0 mg/kg/injection, schedule: Q01DX010 (sc), vehicle: saline with Tween-80) was 65 % of control, the T/C (dose: 100.0 mg/kg/injection, schedule: Q01DX010 (sc), vehicle: saline with Tween-80) was 152 % of control and the T/C (dose: 200.0 mg/kg/injection, schedule: Q01DX010 (sc), vehicle: saline with Tween-80) was 251 % of control. For the same compound, the T/C (dose: 400.0 mg/kg/injection, schedule: Q01DX010 (sc), vehicle: saline with Tween-80) was 121 % of control.
`COc1cccc2c1C(=O)c1c(O)c3c(c(O)c1C2=O)C[C@@](O)(/C(C)=N\O)C[C@@H]3OC1CC(N)C(O)C(C)O1` (stereo partly specified) was tested, and the T/C [5] was 87 % of control, the T/C [6] was 65 % of control and 76 % of control and the T/C [7] was 17 % of control and 18 % of control.
`[Na+]` was tested, and the T/C (dose: 150.0 mg/kg/injection, schedule: Q04DX003 (ip), vehicle: water) was 68 % of control, the T/C (dose: 600.0 mg/kg/injection, schedule: Q04DX003 (ip), vehicle: water) was 82 % of control and the T/C (dose: 1200.0 mg/kg/injection, schedule: Q04DX003 (ip), vehicle: water) was 79 % of control.
In the case of `CC(=O)Oc1c[nH]c(=O)[nH]c1=O`, the T/C (dose: 200.0 mg/kg/injection, schedule: Q04DX003 (sc), vehicle: distilled water + Tween-80) is reported as 98 % of control, the T/C (dose: 400.0 mg/kg/injection, schedule: Q04DX003 (sc), vehicle: distilled water + Tween-80) is reported as 76 % of control and the T/C (dose: 800.0 mg/kg/injection, schedule: Q04DX003 (sc), vehicle: distilled water + Tween-80) is reported as 104 % of control.
For `OC1OC2COC(c3ccccc3)OC2C(O)C1O` (stereo unspecified), the T/C (dose: 300.0 mg/kg/injection, schedule: Q04DX003 (sc), vehicle: water) was 101 % of control, the T/C (dose: 600.0 mg/kg/injection, schedule: Q04DX003 (sc), vehicle: water) was 117 % of control and the T/C (dose: 1200.0 mg/kg/injection, schedule: Q04DX003 (sc), vehicle: water) was 105 % of control. The T/C (dose: 2400.0 mg/kg/injection, schedule: Q04DX003 (sc), vehicle: water) was 90 % of control.
`CC(=O)C(=O)O.CC(=O)C(=O)O.[NH-]C1CCCCC1[NH-].[Pt+2]` (stereo unspecified) was tested, and the T/C (dose: 9.37 mg/kg/injection, schedule: Q04DX003 (sc), vehicle: other) was 67 % of control, the T/C (dose: 18.75 mg/kg/injection, schedule: Q04DX003 (sc), vehicle: other) was 76 % of control and the T/C (dose: 37.5 mg/kg/injection, schedule: Q04DX003 (sc), vehicle: other) was 80 % of control.
With `C[C@]12C=CC(=O)C=C1CC[C@@H]1[C@@H]2[C@@H](O)C[C@@]2(C)[C@H]1CC[C@]2(O)C(=O)CO` the T/C (dose: 50.0 mg/kg/injection, schedule: Q01DX010 (sc), vehicle: Klucel (hydroxypropylcellulose) (HPC)) was 63 % of control.
`CC1=CC2c3cccc4[nH]cc(c34)CC2N(C)C1` (stereo unspecified) was tested, and the T/C (dose: 6.25 mg/kg/injection, schedule: Q04DX003 (ip), vehicle: suspension in saline) was 93 % of control, the T/C (dose: 12.5 mg/kg/injection, schedule: Q04DX003 (ip), vehicle: suspension in saline) was 111 % of control and the T/C (dose: 25.0 mg/kg/injection, schedule: Q04DX003 (ip), vehicle: suspension in saline) was 115 % of control. For the same compound, the T/C (dose: 50.0 mg/kg/injection, schedule: Q04DX003 (ip), vehicle: suspension in saline) was 115 % of control.
